Source: patent US10357493B2, “Metalloenzyme inhibitor compounds” (Selenity Therapeutics (Bermuda), Ltd., priority 2017, dated 2019)

Experiments:
[1] = biological target: HDAC1 (Homo sapiens (Human), UniProt Q13547); experiment: HDAC1 enzymatic assay; format: biochemical; conditions: read-out: Human HDAC1 IC50
Experimental: (§1) All enzymatic reactions were conducted in duplicate at room temperature for 17 hours in a 50 μl mixture containing HDAC assay buffer (50 mM Tris-HCl, pH 7.4, 137 mM NaCl, 2.7 mM KCl, 0.05% Tween 20, 5 μg BSA), an HDAC substrate, an HDAC enzyme, and a test compound. Compound dilution was prepared ten-fold higher than the final concentration of the compounds with 10% DMSO in HDAC assay buffer and 5 μl of the dilution was added to a 50 μl reaction so that the final concentration of DMSO is 1% in all of reactions. After enzymatic reactions, 50 μl of HDAC Developer was added to each well and the plate was incubated at room temperature for an additional 20 minutes. Fluorescence intensity was measured at an excitation of 360 nm and an emission of 460 nm using a Tecan Infinite M1000 or Biotek Synergy microplate reader.
(§2) The fluorescent intensity data were analyzed using the computer software, Graphpad Prism. In the absence of the compound, the fluorescent intensity (Ft) in each data set was defined as 100% activity. In the absence of HDAC, the fluorescent intensity (Fb) in each data set was defined as 0% activity. The percent activity in the presence of each compound was calculated according to the following equation: % activity=(F−Fb)/(Ft−Fb), where F=the fluorescent intensity in the presence of the compound.
(§3) The values of % activity versus a series of compound concentrations were then plotted using non-linear regression analysis of Sigmoidal dose-response curve generated with the equation Y=B+(T−B)/1+10((Log EC50−X)×Hill Slope), where Y=percent activity, B=minimum percent activity, T=maximum percent activity, X=logarithm of compound and Hill Slope=slope factor or Hill coefficient. The IC50 value was determined by the concentration causing a half-maximal percent activity.
(§4) HDAC1 enzymatic assays contained 0.5 ng HDAC1 and 10 uM of HDAC substrate. HDAC2 enzymatic assays contained 0.5 ng HDAC2 and 10 uM of HDAC substrate. HDAC3 enzymatic assays contained 0.4 ng HDAC3/NCOR2 and 10 uM of HDAC substrate. HDAC4 enzymatic assays contained 0.02 ng HDAC4 and 2 uM of HDAC substrate. HDAC5 enzymatic assays contained 0.5 ng HDAC5 and 2 uM of HDAC substrate. HDAC6 enzymatic assays contained 2 ng HDAC6 and 10 uM of HDAC substrate. HDAC7 enzymatic assays contained 0.05 ng HDAC7 and 2 uM of HDAC substrate. HDAC8 enzymatic assays contained 5 ng HDAC8 and 2 uM of HDAC substrate. HDAC9 enzymatic assays contained 1 ng HDAC9 and 2 uM of HDAC substrate. HDAC10 enzymatic assays contained 75 ng HDAC10 and 10 uM of HDAC substrate. HDAC11 enzymatic assays contained 5 ng HDAC11 and 2 uM of HDAC substrate.

[2] = biological target: HDAC6 (Homo sapiens (Human), UniProt Q9UBN7); experiment: HDAC6 enzymatic assay; format: biochemical; conditions: read-out: Human HDAC6 IC50
Experimental: as §1, §2, §3, §4

HDAC6, sequence (Q9UBN7 whole entry): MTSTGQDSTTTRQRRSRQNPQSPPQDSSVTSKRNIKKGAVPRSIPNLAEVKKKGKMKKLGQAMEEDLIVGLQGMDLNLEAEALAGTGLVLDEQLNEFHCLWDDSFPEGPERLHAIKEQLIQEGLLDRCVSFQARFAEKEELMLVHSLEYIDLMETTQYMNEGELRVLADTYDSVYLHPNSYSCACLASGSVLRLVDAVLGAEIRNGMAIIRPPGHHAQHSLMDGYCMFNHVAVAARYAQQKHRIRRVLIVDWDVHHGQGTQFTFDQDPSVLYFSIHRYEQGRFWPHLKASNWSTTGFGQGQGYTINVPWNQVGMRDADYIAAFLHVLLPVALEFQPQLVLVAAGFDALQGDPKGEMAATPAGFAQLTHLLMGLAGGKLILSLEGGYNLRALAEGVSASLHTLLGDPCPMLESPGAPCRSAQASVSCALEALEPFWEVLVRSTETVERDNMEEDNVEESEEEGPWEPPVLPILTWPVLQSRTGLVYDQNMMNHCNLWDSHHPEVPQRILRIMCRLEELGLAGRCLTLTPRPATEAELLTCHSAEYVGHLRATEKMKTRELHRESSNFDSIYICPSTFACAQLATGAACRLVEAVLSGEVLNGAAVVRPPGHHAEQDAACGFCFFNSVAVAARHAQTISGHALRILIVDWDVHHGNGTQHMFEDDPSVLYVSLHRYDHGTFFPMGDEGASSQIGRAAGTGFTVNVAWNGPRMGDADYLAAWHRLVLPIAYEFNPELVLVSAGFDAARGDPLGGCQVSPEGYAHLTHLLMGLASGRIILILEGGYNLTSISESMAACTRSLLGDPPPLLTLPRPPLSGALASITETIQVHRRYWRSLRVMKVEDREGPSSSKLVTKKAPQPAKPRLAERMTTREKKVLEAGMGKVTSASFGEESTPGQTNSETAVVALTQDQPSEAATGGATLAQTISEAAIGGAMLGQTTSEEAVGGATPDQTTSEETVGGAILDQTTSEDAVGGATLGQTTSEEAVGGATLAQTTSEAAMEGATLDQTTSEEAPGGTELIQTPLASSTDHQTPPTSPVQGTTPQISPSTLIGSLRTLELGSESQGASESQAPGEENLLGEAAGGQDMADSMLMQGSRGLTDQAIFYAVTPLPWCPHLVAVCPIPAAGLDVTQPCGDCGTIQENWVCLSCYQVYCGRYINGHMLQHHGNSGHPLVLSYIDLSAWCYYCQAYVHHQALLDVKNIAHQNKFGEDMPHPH
HDAC1, sequence (Q13547 whole entry): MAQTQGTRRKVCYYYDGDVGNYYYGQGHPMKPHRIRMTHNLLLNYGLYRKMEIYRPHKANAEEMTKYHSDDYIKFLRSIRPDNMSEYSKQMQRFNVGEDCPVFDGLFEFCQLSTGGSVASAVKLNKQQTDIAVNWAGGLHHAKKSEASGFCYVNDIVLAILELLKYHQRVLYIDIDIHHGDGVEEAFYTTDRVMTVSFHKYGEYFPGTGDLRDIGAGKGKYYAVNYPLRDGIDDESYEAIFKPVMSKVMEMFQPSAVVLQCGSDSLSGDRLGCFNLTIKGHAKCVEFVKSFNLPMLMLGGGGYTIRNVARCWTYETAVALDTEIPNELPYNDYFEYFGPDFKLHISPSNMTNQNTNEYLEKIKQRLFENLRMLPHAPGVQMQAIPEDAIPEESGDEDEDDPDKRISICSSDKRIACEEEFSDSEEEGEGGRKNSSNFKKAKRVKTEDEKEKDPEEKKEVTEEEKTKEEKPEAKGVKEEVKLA

Row | Structure (SMILES) | IC50 [1] [µM] | IC50 [2] [µM]
1 | CS(=O)(=O)Nc1ccccc1CC(Nc1ncc(-c2nnc(C(F)F)o2)cn1)c1ccc(F)cc1 (centres unmarked) [Example 131, N-(2-(2-((5-(5-(difluoromethyl)-1,3,4-oxadiazol-2-yl)pyrimidin-2-yl)amino)-2-(4-fluorophenyl)ethyl)phenyl)methanesulfonamide] | > 30 | 0.058
2 | CCS(=O)(=O)N(C)CC(Nc1ncc(-c2nnc(C(F)F)o2)cn1)c1ccc(OC(F)F)cc1F (stereo not drawn) [148(+), N-(2-(4-(difluoromethoxy)-2-fluorophenyl)-2-((5-(5-(difluoromethyl)-1,3,4-oxadiazol-2-yl)pyrimidin-2-yl)amino)ethyl)-N-methylethanesulfonamide] | > 30 | 0.019
3 | CN(CC(Nc1ncc(-c2nnc(C(F)F)o2)cn1)c1ccc(OC(F)F)cc1F)S(=O)(=O)C1CC1 (stereo not drawn) [151(+), N-(2-(4-(difluoromethoxy)-2-fluorophenyl)-2-((5-(5-(difluoromethyl)-1,3,4-oxadiazol-2-yl)pyrimidin-2-yl)amino)ethyl)-N-methylcyclopropanesulfonamide] | > 30 | 0.085
4 | O=C(C1CC1)N(CC(Nc1ncc(-c2nnc(C(F)F)o2)cn1)c1ccc(F)cc1)CC(F)(F)F (single isomer, unassigned) [170(+), N-(2-((5-(5-(difluoromethyl)-1,3,4-oxadiazol-2-yl)pyrimidin-2-yl)amino)-2-(4-fluorophenyl)ethyl)-N-(2,2,2-trifluoroethyl)cyclopropanecarboxamide] | > 30 | 0.16
5 | Fc1ccc(C(CC(F)(F)F)Nc2ncc(-c3nnc(C(F)F)o3)cn2)cc1 (single isomer, unassigned; (+)) [13(+), (+)-5-(5-(difluoromethyl)-1,3,4-oxadiazol-2-yl)-N-(3,3,3-trifluoro-1-(4-fluorophenyl)propyl)pyrimidin-2-amine] | > 30 | 0.03
6 | CN(CC(Nc1ncc(-c2nnc(C(F)F)o2)cn1)c1ccc(F)cc1F)S(=O)(=O)C1CC1 (stereo not drawn) [143(+), N-(2-((5-(5-(difluoromethyl)-1,3,4-oxadiazol-2-yl)pyrimidin-2-yl)amino)-2-(2,4-difluorophenyl)ethyl)-N-methylcyclopropanesulfonamide] | > 30 | 0.053
7 | CC(Nc1ncc(-c2nnc(C(F)F)o2)cn1)c1ccccc1 (centres unmarked) [Example 6, 5-(5-(difluoromethyl)-1,3,4-oxadiazol-2-yl)-N-(1-phenylethyl)pyrimidin-2-amine] | > 30 | 0.057
8 | FC(F)(F)c1nnc(-c2cnc(NC3(c4ccccc4)CC3)nc2)o1 [Example 1, N-(1-phenylcyclopropyl)-5-(5-(trifluoromethyl)-1,3,4-oxadiazol-2-yl) pyrimidin-2-amine] | > 30 | 0.21
9 | Fc1ccc(C(Nc2ncc(-c3nnc(C(F)F)o3)cn2)C(F)(F)F)cc1 (centres unmarked) [Example 15, 5-(5-(difluoromethyl)-1,3,4-oxadiazol-2-yl)-N-(2,2,2-trifluoro-1-(4-fluorophenyl)ethyl)pyrimidin-2-amine] | > 30 | 0.074
10 | CS(=O)(=O)N(CC(Nc1ncc(-c2nnc(C(F)F)o2)cn1)c1ccc(F)c(F)c1)CC(F)(F)F (single isomer, unassigned) [172(A), N-(2-((5-(5-(difluoromethyl)-1,3,4-oxadiazol-2-yl)pyrimidin-2-yl)amino)-2-(3,4-difluorophenyl)ethyl)-N-(2,2,2-trifluoroethyl)methanesulfonamide] | > 30 | 0.32
11 | CS(=O)(=O)Nc1cccc(C(Nc2ncc(-c3nnc(C(F)F)o3)cn2)c2ccc(F)cc2)c1 (centres unmarked) [Example 128, N-(3-(((5-(5-(difluoromethyl)-1,3,4-oxadiazol-2-yl)pyrimidin-2-yl)amino)(4-fluorophenyl)methyl)phenyl)methanesulfonamide] | > 30 | 0.13
12 | CN(CC(Nc1ncc(-c2nnc(C(F)F)o2)cn1)c1ccc(F)cc1)S(C)(=O)=O (centres unmarked) [Example 113, N-(2-((5-(5-(difluoromethyl)-1,3,4-oxadiazol-2-yl)pyrimidin-2-yl)amino)-2-(4-fluorophenyl)ethyl)-N-methylmethanesulfonamide] | > 30 | 0.021
13 | CS(=O)(=O)NCC(Nc1ncc(-c2nnc(C(F)F)o2)cn1)c1ccc(OC(F)F)cc1 (single isomer, unassigned) [115(−), N-(2-(4-(difluoromethoxy)phenyl)-2-((5-(5-(difluoromethyl)-1,3,4-oxadiazol-2-yl)pyrimidin-2-yl)amino)ethyl)methanesulfonamide] | > 30 | 0.37
14 | CS(=O)(=O)NCC(Nc1ncc(-c2nnc(C(F)F)o2)cn1)c1ccc(F)cc1 (single isomer, unassigned) [38(−), N-(2-((5-(5-(difluoromethyl)-1,3,4-oxadiazol-2-yl)pyrimidin-2-yl)amino)-2-(4-fluorophenyl)ethyl) methanesulfonamide] | > 30 | 0.32
15 | CCS(=O)(=O)N(CC(Nc1ncc(-c2nnc(C(F)F)o2)cn1)c1ccc(F)cc1F)CC(F)(F)F (stereo not drawn) [141(+), N-(2-((5-(5-(difluoromethyl)-1,3,4-oxadiazol-2-yl)pyrimidin-2-yl)amino)-2-(2,4-difluorophenyl)ethyl)-N-(2,2,2-trifluoroethyl)ethanesulfonamide] | > 30 | 0.13

The next lines start with the values.

Row | IC50 [1] [µM] | IC50 [2] [µM] | Structure (SMILES)
16 | > 30 | 0.035 | Fc1cc(F)cc(C2(Nc3ncc(-c4nnc(C(F)F)o4)cn3)CC2)c1 [Example 72, 5-(5-(difluoromethyl)-1,3,4-oxadiazol-2-yl)-N-(1-(3,5-difluorophenyl)cyclopropyl) pyrimidin-2-amine]
17 | > 30 | 0.02 | FC(F)c1nnc(-c2cnc(NC3(c4ccccc4OC(F)(F)F)CC3)nc2)o1 [Example 55, 5-(5-(difluoromethyl)-1,3,4-oxadiazol-2-yl)-N-(1-(2-(trifluoromethoxy)phenyl)cyclopropyl) pyrimidin-2-amine]
18 | > 30 | 0.006 | FC(F)c1nnc(-c2cnc(NC3(c4ccccc4Cl)CC3)nc2)o1 [Example 52, N-(1-(2-chlorophenyl)cyclopropyl)-5-(5-(difluoromethyl)-1,3,4-oxadiazol-2-yl)pyrimidin-2-amine]
19 | > 30 | 0.1 | Fc1cc(C(F)(F)F)ccc1C1(Nc2ncc(-c3nnc(C(F)F)o3)cn2)CC1 [Example 71, 5-(5-(difluoromethyl)-1,3,4-oxadiazol-2-yl)-N-(1-(2-fluoro-4-(trifluoromethyl)phenyl)cyclopropyl)pyrimidin-2-amine]
20 | > 30 | 0.16 | Fc1ccc(C2(Nc3ncc(-c4nnc(C(F)F)o4)cn3)CCN(c3ccccc3)CC2)cc1 [Example 17, 5-(5-(difluoromethyl)-1,3,4-oxadiazol-2-yl)-N-(4-(4-fluorophenyl)-1-phenylpiperidin-4-yl)pyrimidin-2-amine]
21 | > 30 | 0.014 | Fc1ccc(Cl)cc1C1(Nc2ncc(-c3nnc(C(F)F)o3)cn2)CC1 [Example 76, N-(1-(5-chloro-2-fluorophenyl)cyclopropyl)-5-(5-(difluoromethyl)-1,3,4-oxadiazol-2-yl)pyrimidin-2-amine]
22 | > 30 | 0.095 | Fc1ccc(-c2ccc(C3(Nc4ncc(-c5nnc(C(F)F)o5)cn4)CC3)cc2)cc1 [Example 16, 5-(5-(difluoromethyl)-1,3,4-oxadiazol-2-yl)-N-(1-(4′-fluoro-[1,1′-biphenyl]-4-yl)cyclopropyl) pyrimidin-2-amine]
